Results: PubChem BioAssay AID2252 (Southern Research Specialized Biocontainment Screening …, 2010)

Tested on: THP-1 viability, CellTiter-Glo luminescence, 72 h
Assay: PubChem AID 2252

| Structure (SMILES) | EC50 [µM] |
| --- | --- |
| COc1ccc(CSCCN)cc1Cl | 44.9 |
| CCOc1cc(CNCCCN2CCOCC2)cc(Br)c1OCC(=O)Nc1cccc(C(F)(F)F)c1 | 8.24 |
| CN1CC=C(/C=C/c2ccc(-c3ccccc3)cc2)CC1 | 10.5 |
| O=C(CSc1ccccn1)Nc1nonc1[N+](=O)[O-] | 6.9 |
| Cc1cc(OCCCCCNCCO)cc(C)c1Cl | 21.2 |
| Fc1cccc(NC(=S)NCc2ccc(Cl)cc2)c1 | 46.7 |
| O=C1c2ccccc2NC(c2ccc(-c3ccc(Br)cc3)o2)N1O (stereo not given) | 10.6 |
| Cc1cc([N+](=O)[O-])cc(/C=N/n2c(C)nc3ccccc3c2=O)c1O | 28.2 |
| CC[C@@H](C)[C@H](CNC)NC[C@@H](Cc1cccc2ccccc12)NCCc1cccc(C(F)(F)F)c1 | 5.86 |
| CN(C)CCNC(=O)c1ccc(COc2ccc(Cl)cc2Cl)cc1 | 13.8 |
| Cc1cccc(Nc2nc(NCc3ccco3)c3ccccc3n2)c1 | 4.43 |
| O=C(/C=C/c1ccc(F)cc1)NC(=S)NNC(=O)c1cnccn1 | 6.17 |
| Brc1ccc2c(c1)CN1CCCC1=N2 | 28.6 |
| CN1CCN(C(c2cccc(Cl)c2)c2ccccc2Cl)CC1 (stereo not given) | 35 |
| O=C1c2cccc3cccc(c23)C(=O)C1(O)O | 30.2 |
| CCCSc1nc2cc(OC)c(OC)cc2c(=N)n1CCCN1CCOCC1 | 45.2 |
| Cc1c(CCN)ccc2c1[nH]c1ccccc12 | 22.3 |
| CCCNC1=C(C)C(=O)C2=C(C1=O)C(COC(N)=O)[C@]1(OC)C3NC3CN21 (stereo not given in full) | 8.84 |
| CN(C)c1ccc(Nc2nc(N)c3ccccc3n2)cc1 | 6 |
| CC1=C([N+](=O)[O-])C(c2ccccc2)C2=C(N1)c1ccccc1C2=O (stereo not given) | 1.01 |
| CCOC(=O)c1cc(-c2ccc(F)cc2)n(CCC(=O)NC2CCN(Cc3ccccc3)CC2)c1C | 18.9 |
| OCCCCNCc1ccc(OCc2ccccc2Cl)cc1 | 34.6 |
| CCCCCOc1ccc(CSC2=NCCN2)cc1[N+](=O)[O-] | 20 |

| Structure (SMILES) | EC50 [µM] |
| --- | --- |
| O=Nc1ccc(O)c2ncccc12 | 2.07 |
| CCN(CCCNC(=O)c1cn(CC)c2ccc(S(=O)(=O)N(C)C)cc2c1=O)c1cccc(C)c1 | 34.8 |
| CCCCCCCSc1cc(OC)c(CCN(C)C)cc1OC | 9.51 |
| COC(=O)c1ccc(Cn2c(O)c(N=NC(N)=S)c3ccccc32)o1 | 12.7 |
| OCCNc1nc(Nc2ccc(Br)cc2)nc2ccccc12 | 0.62 |
| N=c1n(CCN2CCCCC2)c2ccccc2n1CC(O)COc1ccccc1 (stereo not given) | 28.7 |
| Cc1ccc2nc(N(CCCN(C)C)C(=O)c3sc4ccccc4c3Cl)sc2c1 | 28.1 |
| Cc1ccc2nc(N(CCCN(C)C)C(=O)c3ccc4c(c3)CCCC4)sc2c1 | 9.42 |
| COc1ccc(C(=O)C[n+]2cc(Br)cc3ccccc32)cc1[N+](=O)[O-] | < 0.1 |
| COc1ccccc1Nc1nc(NCc2ccco2)c2ccccc2n1 | 13.3 |
| CCCCCCCCCC[N+](C)(C)CC/C=C1/c2ccccc2Sc2ccc(Cl)cc21 | 1.99 |
| Cc1ccc(NC2=C(Cl)C(=O)OC2OC(=O)c2ccco2)c(C)c1 (stereo not given) | 27.9 |
| CCc1nn(CCCN2CCN(c3cccc(Cl)c3)CC2)c(=O)n1CCOc1ccccc1 | 42.4 |
| COc1c(N2CCN(C(=S)NCc3ccccc3)C(C)C2)c(F)cc2c(=O)c(C(=O)O)cn(C3CC3)c12 (stereo not given) | 17.9 |
| C#CCOCCOCCOCCNc1nc(N2CCN(C(=O)CCCCCCCCCCNC(=O)[C@H]([C@@H](C)CC)n3cc(CCCCN=C(N)N)nn3)CC2)nc(N2CCN(C(=O)CCCCCCCCCCNC(=O)[C@H](CCCCN)n3cc(C)nn3)CC2)n1 | 3.57 |
| O=C(CCN1CCOCC1)c1ccc(Br)cc1 | 43.2 |
| Nc1nc(=S)c2[nH]cnc2[nH]1 | 0.32 |
| CCSc1ccc2c(c1)N(CCCN1CCN(C)CC1)c1ccccc1S2 | 12.8 |
| COc1cc([N+](=O)[O-])cc(/C=N/NC(=O)c2cccnc2)c1O | 29.7 |
| Oc1ccccc1N=Cc1c(O)ccc2oc3c(c12)CCCC3 | 45.8 |
| O=c1c(O)cccc2cc(O)c(O)c(O)c12 | 24.2 |
| CN(C)CCCNc1cc(C(C)(C)C)nc2c(-c3ccccc3)cnn12 | 6.48 |
| COc1ccc(CNCCc2cccc(F)c2)c2ccccc12 | 12.9 |

| Structure (SMILES) | EC50 [µM] |
| --- | --- |
| O=C(CSc1cccc2cccnc12)Nc1ccc(S(=O)(=O)N2CCOCC2)cc1 | 24.3 |
| Cc1ccc2c(c1)sc(-c1ccc(N(C)C)cc1)[n+]2C | 4.02 |
| O=C(/C=C/c1ccco1)NC(=S)Nc1cccc(-c2nc3ccccc3o2)c1 | < 0.1 |
| CN(C)CC/C=C1\c2ccc(F)cc2Sc2cc(F)c(Cl)cc21 | 11.3 |
| NC1=NC[C@H](Cc2ccc(O)cc2)N1CCC12CC3CC(CC(C3)C1)C2 | 13.2 |
| Oc1ccc(CN2CCN(c3ccccc3)CC2)c2cccnc12 | 5.88 |
| Cc1cc(C(C)(C)CC(C)(C)C)ccc1OCCOCC[N+](C)(C)Cc1ccccc1 | 1.18 |
| CC1CCc2cc(F)cc3c(=O)c(C(=O)O)cn1c23 (stereo not given) | < 0.1 |
| O=C1C=C(Nc2ccccc2O)c2ccccc2C1=O | 10.8 |
| Cc1[nH]nc2c1C(c1ccc(-c3ccccc3C#N)o1)C(C#N)=C(N)O2 (stereo not given) | 30.6 |
| CSc1nc2cc(Oc3cccc(Cl)c3Cl)c(Cl)cc2[nH]1 | 43.9 |
| O=C(Cc1ccccc1)N/N=C/c1cc(Br)cc(Cl)c1O | 3.7 |
| O=C(CCN1Cc2ccccc2C1)c1ccc2c(c1)OCCO2 | 19 |
| O=C(CSc1nc2ccccc2s1)N/N=C/c1cc([N+](=O)[O-])ccc1O | 27.5 |
| CN(C)CCCN1c2ccccc2Sc2ccccc21 | 32.6 |
| CN1CCc2c(sc(NC(=O)c3ccc([N+](=O)[O-])o3)c2C(N)=O)C1 | 0.7 |
| COc1ccccc1Nc1nc(Cl)c(C=O)s1 | 21.1 |
| C#CCOCCOCCOCCNc1nc(N2CCN(C(=O)CCCCCCCCCCNC(=O)Cn3cc(CCCCCN)nn3)CC2)nc(N2CCN(C(=O)CCCCCCCCCCNC(=O)[C@@H]([C@H](C)O)n3cc(C)nn3)CC2)n1 | < 0.1 |
| O=C1c2ccc3c4c(ccc(c24)C(=O)N1c1cccc(O)c1)C(=O)N(c1cccc(O)c1)C3=O | 2.74 |
| OCCN1CCN(C2CCC(c3ccc(F)cc3)c3ccc(F)cc32)CC1 (stereo not given) | 9.55 |
| COc1ccc(C(=O)NC(=S)NNC(=O)CCc2ccccc2)cc1 | 6.09 |
| Cn1cnc2cc(NC(=O)c3cccs3)ccc21 | < 0.1 |
| CN(C)CCCn1c(SCC(=O)N2c3ccccc3Sc3ccccc32)nc2ccccc2c1=O | 14.2 |

| Structure (SMILES) | EC50 [µM] |
| --- | --- |
| Cc1ccc2nc(/C(C#N)=C\c3ccc([N+](=O)[O-])o3)[nH]c2c1 | 1.25 |
| C#CCOCCOCCOCCNc1nc(N2CCN(C(=O)CCCCCCCCCCNC(=O)[C@H]([C@@H](C)CC)n3cc(CCCCN=C(N)N)nn3)CC2)nc(N2CCN(C(=O)CCCCCCCCCCNC(=O)[C@@H]([C@H](C)O)n3cc(C)nn3)CC2)n1 | 2.98 |
| CN(C)CCCN(C(=O)COc1ccccc1)c1nc2ccc(Cl)cc2s1 | 46.8 |
| NC1=NC[C@H](CC2CCCCC2)N1CCc1cc(C(F)(F)F)cc(C(F)(F)F)c1 | 6.33 |
| O=C(N/N=C/c1ccc([N+](=O)[O-])o1)c1ccc(O)cc1 | 13.1 |
| Cc1ccc(-c2csc(N=C(N)N)n2)c(C)c1 | 26.9 |
| Cc1cccc2c1Sc1ccc(Cl)cc1CC2N1CCNCC1 (stereo not given) | 6.59 |
| O=[N+]([O-])c1cc(/C=N/Nc2nc3ccccc3[nH]2)c(O)cc1O | 1.7 |
| CCOC(=O)C1=C(c2ccccc2)NC(N)=NC1c1ccc(OCc2ccc(C(=O)OC)cc2)cc1 (stereo not given) | 7.56 |
| CC1CCN(c2nc3ccc(C(=O)NCCCN4CCCCC4)cc3s2)CC1 | 30.7 |
| c1ccc(Sc2cccc3ccccc23)c(CNC2=NCCN2)c1 | 5.87 |
| O=C(N/N=C/c1cc([N+](=O)[O-])ccc1O)c1cccc2cc[nH]c12 | 1.91 |
| COc1ccc(NC(=O)CC2Sc3ncnn3C2=O)cc1 (stereo not given) | 46.5 |
| O=C(C[n+]1cn(C(F)F)c2ccccc21)c1ccc(Br)cc1 | 35.8 |
| S=C(Nc1ccc(Cl)c(Cl)c1)NC1CCN(Cc2ccccc2)CC1 | 10.7 |
| Cc1ccc(-n2[nH]c(C)c(C=NCc3ccncc3)c2=O)cc1 | 31.6 |
| CN1CCN(c2ccccc2NC(=O)c2cc3c(s2)-c2ccccc2OC3)CC1 | 9.73 |
| CC(=O)Oc1ccccc1C(=O)Nc1ncc([N+](=O)[O-])s1 | 20.2 |
| CN1CCN(Cc2cc(COCc3ccccc3)c3cccnc3c2O)CC1 | 2.82 |
| CCCCCOc1ccc(C)cc1CN(CCCl)CCCl | 28.9 |
| c1ccc(Nc2ccnc(Nc3ccccc3)n2)cc1 | 41.7 |
| O=C(C[n+]1cnn(CC(=O)c2ccc(Cl)cc2Cl)c1)c1ccc([N+](=O)[O-])cc1 | 26.4 |
| CCCCCNC(=O)c1cn(CC)c2cc(N3CCN(C)CC3)c(F)cc2c1=O | 19.8 |

| Structure (SMILES) | EC50 [µM] |
| --- | --- |
| O=C(c1cccs1)c1no[n+]([O-])c1C(=O)c1cccs1 | 1.89 |
| CN(C)CC/C=C1\c2ccccc2Sc2ccc(Cl)cc21 | 17 |
| Clc1ccc(Nc2ccc(NCc3ccccc3)nn2)cc1 | 22.4 |
| CC1(C)N=C(N)NC(Nc2ccc(Br)cc2)=N1 | 7.06 |
| CCc1c(C)nc2cc(-c3cc(OC)cc(OC)c3)nn2c1N1CCCC1 | 31 |
| CCCCOc1ccc(Br)cc1CSC(=N)N | 5.93 |
| CNc1ccc(SC#N)cc1 | 33.7 |
| Cc1cc(NC(=O)/C=C/C(=O)N(c2ccccc2C)C(C(=O)NC2CCCC2)c2ccc(F)cc2)no1 (stereo not given) | 37.5 |
| Fc1ccc(CCNCc2ccc(Cl)c(Cl)c2)cc1 | 35.2 |
| O=C1c2ccccc2C(=O)N1CCCP(=O)(O)CCc1ccccc1 | < 0.1 |
| CCN(CCNCC(O)COc1ccccc1C(C)C)c1cccc(C)c1 (stereo not given) | 11 |
| CCC(C)(c1ccc(C(=O)OC)s1)c1ccc(C(=O)OC)s1 | 49.7 |
| CCN1/C(=C/C(C)=C/c2sc3ccccc3[n+]2CC)Sc2ccccc21 | 0.72 |
| COc1ccc(CNc2ncnc3c2[nH]c2ccccc23)cc1 | 39.3 |
| Oc1ccc(C[C@H]2CNCCN2CCCCC2CCCCC2)cc1 | 8.99 |
| CCOC(=O)c1ccccc1-n1c(C)cc(C2N=C(N)Nc3nc4ccccc4n32)c1C (stereo not given) | 6.21 |
| NC1=NC2=C(CCCC2)C2(CCCCC2)S1 | 37.4 |
| Nc1c(Cl)ncnc1N/N=C/c1ccccn1 | 0.36 |
| CCOC(=O)Cn1c(=N)n(CCOc2ccc3ccccc3c2)c2ccccc21 | 17.7 |
| CC(=O)NC(c1cccc([N+](=O)[O-])c1)c1ccc2cccnc2c1O (stereo not given) | 0.47 |
| Clc1ccc(OCCCNCc2ccccc2)c2ccccc12 | 23.4 |
| CN1CCN(C2=Cc3ccccc3Sc3cc(F)ccc32)CC1 | 8.09 |
| O=C(/C=C/c1ccccc1)NNC(=O)c1ccco1 | < 0.1 |
